This is an account of results in ChEMBL document CHEMBL1201862, “PubChem BioAssay data set” (2004).

Structures are written as SMILES.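 Growth conditions: 96-well plates. Treatment: test compound, 48 hours, 5 concentrations. Analysis: linear interpolation between bracketing concentrations; unreached endpoints set to highest concentration. GI50: concentration for 50% inhibition of growth.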 Activity calls are given as the source filed them. Rule as the data show it: active = GI50 up to about 1.1 µM and inactive = higher.

Among the test systems are ACHN; CAKI-1; COLO 205; DU-145; HL-60; HOP-62; IGROV-1; LOX IMVI; M14; MCF7; NCI-H23; NCI-H460; NCI/ADR-RES; OVCAR-8; SF-295; SK-MEL-2; SW-620; TK-10; UACC-257.
Holding throughout (assay): NCI-60 cell line screen, 48 h

Take `c1ccc(C2=NOC(c3ccccc3)N2C23CC4CC(CC(C4)C2)C3)cc1` (configuration not stated): the GI50 in the test on ACHN, in the test with CAKI-1, in the test with COLO 205, in the test on DU-145, in the test on HL-60 and with HOP-62 was > 10 µM (inactive) each time. The GI50 in the test on IGROV-1 is > 10 µM (inactive); in the test on LOX IMVI, > 10 µM (inactive); in the test with M14, > 10 µM (inactive); in the test on MCF7, 5.82 µM (inactive); with NCI-H23, > 10 µM (inactive); with NCI-H460, > 10 µM (inactive). Besides, the GI50 in the test with NCI/ADR-RES, in the test with OVCAR-8, in the test on SF-295, in the test on SK-MEL-2, in the test with SW-620 and with TK-10 was > 10 µM (inactive) throughout. The GI50 with UACC-257 was 9.73 µM (inactive).
Regarding `CCCCCC(O)(CCCCC)CCCCCCCCC1=C(O)C(=O)c2ccccc2C1=O`, the GI50 is 8.85 µM (inactive) with ACHN; 12 µM (inactive) with CAKI-1; 20.7 µM (inactive) with COLO 205; 8.53 µM (inactive) in the test on DU-145; 3.51 µM (inactive) in the test with HL-60; 11.6 µM (inactive) with HOP-62. Moreover, the GI50 in the test with IGROV-1 was 6.08 µM (inactive); in the test with LOX IMVI, 4.97 µM (inactive); with M14 it was 10.8 µM (inactive); with MCF7, 9.62 µM (inactive); with NCI-H23 it was 8.15 µM (inactive); in the test with NCI-H460 it was 5.28 µM (inactive). The GI50 with NCI/ADR-RES is 4.4 µM (inactive); with OVCAR-8, 7.19 µM (inactive); with SF-295 it was 7.91 µM (inactive); in the test with SK-MEL-2, 12.1 µM (inactive); in the test with SW-620 it was 7.46 µM (inactive); in the test on TK-10, 15 µM (inactive). Moreover, the GI50 with UACC-257 is 12.6 µM (inactive).
Consider `CSc1c([S+](C)[O-])c2ccccc2n1C` (configuration not stated), for which the GI50 in the test with ACHN, with CAKI-1, in the test with COLO 205, in the test with DU-145, with HL-60 and in the test with HOP-62 was > 100 µM (inactive) in each case. For the same compound, the GI50 with IGROV-1, with LOX IMVI, in the test with M14, with MCF7, in the test on NCI-H23 and with NCI-H460 was > 100 µM (inactive) each time. Besides, the GI50 with NCI/ADR-RES, in the test on OVCAR-8, in the test with SF-295, in the test with SK-MEL-2, in the test on SW-620 and with TK-10 was > 100 µM (inactive) throughout. The GI50 in the test with UACC-257 is > 100 µM (inactive).
As to `C[n+]1cccc(/C=C/c2ccc3cccc(O)c3n2)c1`, the GI50 was > 100 µM (inactive) with ACHN; > 100 µM (inactive) in the test on CAKI-1; > 100 µM (inactive) in the test on COLO 205; > 100 µM (inactive) in the test on DU-145; 28.1 µM (inactive) in the test with HL-60; 59 µM (inactive) in the test with HOP-62. Also, the GI50 with IGROV-1 is > 100 µM (inactive); with LOX IMVI, > 100 µM (inactive); in the test on M14 it was > 100 µM (inactive); in the test on MCF7, 72.4 µM (inactive); with NCI-H23 it was 58.2 µM (inactive); in the test with NCI-H460, 68.7 µM (inactive). Besides, the GI50 was > 100 µM (inactive) in the test with NCI/ADR-RES; 72.3 µM (inactive) in the test with OVCAR-8; > 100 µM (inactive) with SF-295; > 100 µM (inactive) in the test with SK-MEL-2; > 100 µM (inactive) with SW-620; > 100 µM (inactive) in the test on TK-10. Also, the GI50 with UACC-257 is > 100 µM (inactive).
Turning to `Clc1nncc2sc(-c3ccccc3)nc12`, the GI50 was 26.9 µM (inactive) in the test with ACHN; 0.2 µM (active) with CAKI-1; 29.2 µM (inactive) in the test on COLO 205; 6.62 µM (inactive) in the test on DU-145; 4.14 µM (inactive) in the test with HL-60; 17.8 µM (inactive) in the test with HOP-62. Further, the GI50 is 8.67 µM (inactive) in the test on IGROV-1; 14.7 µM (inactive) with LOX IMVI; 17.7 µM (inactive) in the test on M14; 25.5 µM (inactive) in the test on MCF7; 17.5 µM (inactive) in the test on NCI-H23; 16.8 µM (inactive) with NCI-H460. The GI50 in the test with NCI/ADR-RES is 23.2 µM (inactive); with OVCAR-8 it was 20.1 µM (inactive); in the test on SF-295 it was 27.1 µM (inactive); with SK-MEL-2, 16.4 µM (inactive); in the test on SW-620, 21 µM (inactive); in the test on TK-10, 40.9 µM (inactive). Besides, the GI50 in the test with UACC-257 was 18.3 µM (inactive).
As to `O=NN(Cc1ccc(Cl)cc1)C(C(=O)O)c1ccccc1` (configuration not stated), the GI50 in the test with ACHN, with CAKI-1, in the test on COLO 205, in the test on DU-145, with HL-60 and in the test on HOP-62 was > 100 µM (inactive) each time. Further, the GI50 in the test with IGROV-1, in the test with LOX IMVI, in the test on M14, in the test on MCF7, in the test with NCI-H23 and with NCI-H460 was > 100 µM (inactive) throughout. Further, the GI50 in the test on NCI/ADR-RES, with OVCAR-8, in the test with SF-295, with SK-MEL-2, in the test with SW-620 and in the test on TK-10 was > 100 µM (inactive) each time. Also, in the test with UACC-257, the GI50 is 47.2 µM (inactive).
On to `COc1ccc(CNC2=Nc3ccncc3S(=O)(=O)N2c2ccccc2)cc1`, for which the GI50 in the test with ACHN is 34 µM (inactive); in the test with CAKI-1, > 100 µM (inactive); in the test with COLO 205 it was > 100 µM (inactive); with DU-145, 45.7 µM (inactive); in the test on HL-60, 12.8 µM (inactive); in the test on HOP-62 it was > 100 µM (inactive). Moreover, the GI50 in the test on IGROV-1 is 39.9 µM (inactive); in the test on LOX IMVI, 46.9 µM (inactive); in the test on M14 it was 57.7 µM (inactive); in the test with MCF7, 38.5 µM (inactive); in the test with NCI-H23, 35.5 µM (inactive); in the test on NCI-H460, 43.1 µM (inactive). Further, the GI50 in the test with NCI/ADR-RES is 35.9 µM (inactive); in the test on OVCAR-8, 49.8 µM (inactive); in the test with SF-295, 65 µM (inactive); in the test on SK-MEL-2, 41.7 µM (inactive); with SW-620, 33 µM (inactive); with TK-10, 20.3 µM (inactive). Moreover, the GI50 in the test on UACC-257 was 37.4 µM (inactive).
In the case of `CCOC(=O)C(=CNc1ccc(NC2=NCC(C)S2)cc1)C(=O)OCC` (configuration not stated), the GI50 in the test with ACHN was 18.7 µM (inactive); in the test with CAKI-1, 45.3 µM (inactive); in the test on COLO 205 it was 35.6 µM (inactive); in the test on DU-145 it was 46.5 µM (inactive); in the test on HL-60, 2.38 µM (inactive); in the test with HOP-62, 50 µM (inactive). The GI50 with IGROV-1 was 26.8 µM (inactive); in the test with LOX IMVI, 30.1 µM (inactive); in the test on M14 it was 31.5 µM (inactive); in the test on MCF7, 30.3 µM (inactive); in the test on NCI-H23 it was 28.1 µM (inactive); in the test with NCI-H460 it was 31.6 µM (inactive). Further, the GI50 was 23.1 µM (inactive) with NCI/ADR-RES; 24.5 µM (inactive) in the test with OVCAR-8; 29.6 µM (inactive) in the test on SF-295; 19.7 µM (inactive) with SK-MEL-2; 31 µM (inactive) with SW-620; 46.1 µM (inactive) in the test on TK-10. Further, the GI50 with UACC-257 was 26.5 µM (inactive).
